Data set [1] has as its system HuS-E/2 immortalized human primary hepatocytes cells. Briefly: MTT cell viability, HuS-E/2 cells. Particulars: 48 h, 50 μg/ml.
Data set [2] has as its system Oral epithelial cells (OC3). Briefly: MTT cell viability of mock- or HSV-1-infected oral epithelial cells (OC3). Format: cell-based. As for the experimental part:
FIG. 4 provides Experimental conditions for evaluation of the effects of Antrodia camphorata fruit body extracts on oral epithelial cells during HSV-1 infection. Three experimental conditions, including no-treatment, pre-treatment and post-treatment were performed. Oral epithelial cells (OC3) were pre-treated with media only or media containing each Antrodia camphorata extracts for 2 hours, followed by HSV-1 inoculation. Cells were infected with HSV-1 viruses at multiplicity of infection (MOI) of 5 or mock infected for 1 hour at 37° C. for viral entry to occur. Antrodia camphorata extracts were not added during viral inoculation for 1 hour to avoid of its direct effects on virions. Mock- or HSV-1-infected cells were further incubated in the absence or presence of the drug for 19 hours.
The oral epithelial cell line (OC3) was used to determine the possible effects of Antrodia camphorata extracts on oral epithelial cells during HSV-1 infection. Cell monolayers were treated as illustrated in FIG. 4 (please also see details in the Materials and Methods section). Three experimental conditions, including no-treatment, pre-treatment and post-treatment were performed. Whether these Antrodia camphorata extracts have effects before or after viral infection were examined. The effects of Antrodia camphorata extracts on viral propagation (viral yields) in infected oral epithelial cells were examined. At 19-20 h post infection, viral yields in the supernatants were determined using the plaque assay. Viability of treated cells was also determined using the MTT assay for the mitochondrial dehydrogenase activity. Moreover, purified HSV-1 virions were directly treated with Antrodia camphorata extracts to examine whether Antrodia camphorata extracts exert anti-HSV-1 activity directly on virus particles before viral entry. […]
The mitochondrial dehydrogenase activity of treated cells was evaluated using the FBS-free medium containing 1 mg/ml of 3-[4,5-dimethylthiazol-2-yl]-2,5 diphenyltetrazolium bromide (MTT). […]

For `C=C(CC[C@@H](C)[C@H]1CC[C@H]2C3=C(C(=O)C[C@]12C)[C@@]1(C)CCC(O)[C@](C)(O)C1CC3O)C(C)C(=O)O` (some centres unmarked) [A4, antcin K], the “toxic effect (MTT cell viability)” value in data set [1] was “no toxic effect”. Further, the “viability of mock-infected cells or HSV-1 infected cells” value in data set [2] is given as “not affected evidently”.

Values taken from patent publication US11253527B2, “Method and composition for inhibiting virus infection” (priority 2019, dated 2022).
